# Assay results as given in ChEMBL document CHEMBL1201862, “PubChem BioAssay data set” (2004).
# Activity calls are given as the source filed them.
# Target: T1, Heat shock factor protein 1 (Mus musculus, UniProt P38532)
# T1 sequence (P38532 whole entry): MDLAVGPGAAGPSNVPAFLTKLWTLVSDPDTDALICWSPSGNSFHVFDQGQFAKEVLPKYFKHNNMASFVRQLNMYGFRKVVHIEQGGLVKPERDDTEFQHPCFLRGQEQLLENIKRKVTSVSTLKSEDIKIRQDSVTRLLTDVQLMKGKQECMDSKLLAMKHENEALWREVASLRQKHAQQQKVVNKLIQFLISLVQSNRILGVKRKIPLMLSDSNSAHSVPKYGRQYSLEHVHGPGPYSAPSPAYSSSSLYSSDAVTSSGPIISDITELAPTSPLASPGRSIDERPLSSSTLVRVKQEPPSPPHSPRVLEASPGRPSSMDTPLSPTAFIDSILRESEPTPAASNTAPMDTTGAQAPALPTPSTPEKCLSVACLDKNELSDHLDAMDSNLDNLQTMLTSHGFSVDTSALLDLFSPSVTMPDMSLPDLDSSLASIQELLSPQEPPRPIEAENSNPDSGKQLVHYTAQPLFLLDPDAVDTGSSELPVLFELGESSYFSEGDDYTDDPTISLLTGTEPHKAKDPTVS
# Assay: inhibition of MG132-induced HSE-luciferase signal, confirmation, cell-based, NIH3T3, luminescence, dose retest (AID 2382);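 further: NIH3T3 fibroblasts with HSF1-driven luciferase reporter stressed by proteasome inhibitor MG132; luminescence from HSF1-driven luciferase expression after 8 hours of MG132 stress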
# Type: functional
row,Structure (SMILES),EC50
1,O=C(Nc1ccc(S(=O)(=O)N2CCOCC2)cc1)c1ccc(Cl)cc1Cl,> 195 µM (not active)

# System: not listed separately
# Assay: control 3'UTR Renilla luciferase suppression, dose response, counter-screen for Shn3 inhibitor project, cell-based, Clone20-Shn3RL, cherry-picked (AID 624133)
# Type: functional
row,Structure (SMILES),AC50
1,CCCCNc1cccc2c1S(=O)(=O)N(CCCC)CC(COCc1ccccc1)O2 (stereo unspecified),31.7 µM (active)

# System: not listed separately
# Assay: intracellular Trypanosoma cruzi inhibitors in host cells – cell-based, plate reader, cherry-pick samples, set 3, dose response (AID 651818);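 further: compounds incubated with infected cells for about four days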
# Type: functional
row,Structure (SMILES),AC50
1,COc1ccc(S(=O)(=O)Nc2ccc3c(c2)C(=O)N([C@H](C)CO)C[C@H](C)[C@@H](CN(C)Cc2ccc(-c4ccccc4)cc2)O3)cc1,3.32 µM (active)
2,C[C@@H]1CCCCO[C@@H](CN(C)CC2CCCCC2)[C@@H](C)CN([C@H](C)CO)C(=O)c2cc(NC(=O)Nc3ccc4c(c3)OCO4)ccc2O1,0.75 µM (active)
3,C[C@H]1CN([C@@H](C)CO)C(=O)c2cccc(NC(=O)c3ccc(-c4nccs4)cc3)c2O[C@@H]1CN(C)Cc1ccc(-c2ccccc2)cc1,2.93 µM (active)
4,C[C@@H]1CN([C@@H](C)CO)C(=O)c2cccc(NS(=O)(=O)c3ccc(F)cc3)c2O[C@@H]1CN(C)Cc1ccc(Oc2ccccc2)cc1,7.95 µM (active)
5,C[C@@H]1CCCCO[C@H](CN(C)C(=O)NC2CCCCC2)[C@@H](C)CN([C@H](C)CO)C(=O)c2cc(NC(=O)Nc3ccc(C(F)(F)F)cc3)ccc2O1,4.85 µM (active)
6,C[C@@H]1CN([C@H](C)CO)C(=O)Cc2cc(NC(=O)Nc3ccc(C(F)(F)F)cc3)ccc2O[C@@H]1CN(C)Cc1ccc(-c2ccccc2)cc1,3.22 µM (active)
7,C[C@@H]1CN([C@H](C)CO)C(=O)Cc2cc(NC(=O)Nc3ccc(F)cc3)ccc2O[C@@H]1CN(C)Cc1ccc(Oc2ccccc2)cc1,2.71 µM (active)
8,COc1ccc(S(=O)(=O)N(C)C[C@@H]2Oc3c(NC(=O)c4nc5ccccc5s4)cccc3C(=O)N([C@H](C)CO)C[C@@H]2C)cc1,1.17 µM (active)
9,C[C@@H]1CN([C@H](C)CO)C(=O)Cc2cc(NS(=O)(=O)c3ccccc3)ccc2O[C@@H]1CN(C)Cc1ccc(C(=O)Nc2ccccc2N)cc1,3.75 µM (active)
10,C[C@H]1CN([C@@H](C)CO)C(=O)c2cccc(NC(=O)C3CCCCC3)c2O[C@H]1CN(C)Cc1ccc(C(=O)Nc2ccccc2N)cc1,3.38 µM (active)
11,C[C@@H]1CCCCO[C@@H](CN(C)Cc2ccc(C(F)(F)F)cc2)[C@@H](C)CN([C@H](C)CO)C(=O)c2cc(NC(=O)C3CCCCC3)ccc2O1,6.38 µM (active)

# Target: T2, High affinity choline transporter 1 (Homo sapiens, UniProt Q9GZV3)
# T2 sequence (Q9GZV3 whole entry): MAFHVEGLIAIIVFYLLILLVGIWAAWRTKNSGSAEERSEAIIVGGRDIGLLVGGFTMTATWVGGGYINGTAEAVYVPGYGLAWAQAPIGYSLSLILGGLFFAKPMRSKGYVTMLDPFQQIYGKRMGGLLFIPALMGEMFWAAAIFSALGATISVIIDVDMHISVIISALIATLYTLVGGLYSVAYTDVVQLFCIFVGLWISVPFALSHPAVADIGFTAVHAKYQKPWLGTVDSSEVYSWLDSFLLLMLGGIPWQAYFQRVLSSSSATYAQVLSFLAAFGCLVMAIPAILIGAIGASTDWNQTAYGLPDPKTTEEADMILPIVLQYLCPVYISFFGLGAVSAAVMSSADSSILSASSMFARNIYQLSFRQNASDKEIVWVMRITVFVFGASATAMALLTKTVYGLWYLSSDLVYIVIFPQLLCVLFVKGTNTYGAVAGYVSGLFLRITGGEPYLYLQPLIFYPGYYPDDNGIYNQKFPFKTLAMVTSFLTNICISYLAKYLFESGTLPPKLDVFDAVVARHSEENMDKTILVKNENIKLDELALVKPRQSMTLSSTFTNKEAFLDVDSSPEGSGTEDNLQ
# Assay: CHT inhibitors, dose response, cell-based, 5-point CRC, membrane potential dye (AID 504840)
# Type: functional
row,Structure (SMILES),IC50
1,C/C=C(\C)CN1CCC(Oc2cccc(C(=O)NCc3ccccn3)c2)CC1,12.3 µM (active)
2,CCOc1ccc(/C=C2\SC(=S)N(NC(=O)c3ccncc3)C2=O)cc1OC,15.1 µM (active)
3,Cc1ccc2c(c1)N(CCCC(=O)NCC1COc3ccccc3O1)C(=O)CO2 (stereo unspecified),13.8 µM (active)
4,CCOC(=O)Cc1csc(NS(=O)(=O)c2ccc3c4c(cccc24)C(=O)N3CC)n1,4.79 µM (active)
5,O=C(Nc1ccccc1C(=O)NCCCN1CCOCC1)c1ccc(F)cc1,7.09 µM (active)
6,O=C(Nc1ccc(S(=O)(=O)N2CCOCC2)cc1)c1ccc(Cl)cc1Cl,13.8 µM (active)

# Target: T3, Protein skinhead-1 (Caenorhabditis elegans, UniProt P34707)
# T3 sequence (P34707 whole entry): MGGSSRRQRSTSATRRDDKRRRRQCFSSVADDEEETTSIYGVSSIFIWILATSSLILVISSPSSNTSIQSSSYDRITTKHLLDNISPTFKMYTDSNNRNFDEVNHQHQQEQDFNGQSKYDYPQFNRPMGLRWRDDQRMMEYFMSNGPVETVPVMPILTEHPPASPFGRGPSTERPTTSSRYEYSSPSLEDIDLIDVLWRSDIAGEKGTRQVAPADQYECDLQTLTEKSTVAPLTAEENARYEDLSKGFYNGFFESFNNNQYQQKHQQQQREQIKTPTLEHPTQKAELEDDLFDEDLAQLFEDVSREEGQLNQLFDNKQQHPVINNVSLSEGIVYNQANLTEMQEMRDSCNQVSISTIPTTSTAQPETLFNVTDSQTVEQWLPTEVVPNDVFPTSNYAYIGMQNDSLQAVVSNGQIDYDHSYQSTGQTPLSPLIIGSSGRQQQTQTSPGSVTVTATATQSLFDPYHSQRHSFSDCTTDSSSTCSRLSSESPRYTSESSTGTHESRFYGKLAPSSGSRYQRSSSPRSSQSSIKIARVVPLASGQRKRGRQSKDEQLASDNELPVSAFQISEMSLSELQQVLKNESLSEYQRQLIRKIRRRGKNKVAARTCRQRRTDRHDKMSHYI
# Assay: not given
# Type: functional
row,Structure (SMILES),IC50
1,N=c1oc2ccccc2cc1-c1nc(-c2ccccc2)cs1,> 100 µM (inactive)
2,O=C(CCN1CCN(S(=O)(=O)c2ccc(Cl)cc2)CC1)Nc1ccc(F)cc1,> 100 µM (inactive)
3,CCOc1ccc(-c2nc(-c3cccnc3)no2)cc1,22.6 µM (active)
4,CCc1c(C)nc2cc(-c3ccccc3)nn2c1O,> 100 µM (inactive)
5,Clc1ccc(-c2nc(-c3ccncc3)no2)c(Cl)c1,6.36 µM (active)
6,CCN(CC)c1ccc(C2NC(=O)c3ccccc3N2)cc1 (stereo unspecified),> 100 µM (inactive)
7,O=C(O)c1ccc2ccc3ccccc3c2c1,> 100 µM (inactive)

# Target: T4, Ubiquitin-conjugating enzyme E2 N (Homo sapiens, UniProt P61088);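 further: Dose-response confirmation in a TR-FRET assay detecting UBC13-driven polyubiquitin chain formation, inhibition measured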
# T4 sequence (P61088 whole entry): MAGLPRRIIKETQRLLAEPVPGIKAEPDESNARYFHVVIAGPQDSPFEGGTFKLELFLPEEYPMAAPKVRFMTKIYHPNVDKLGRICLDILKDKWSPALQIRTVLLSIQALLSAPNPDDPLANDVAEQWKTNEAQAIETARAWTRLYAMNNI
# Assay: not given
# Type: functional
row,Structure (SMILES),IC50
1,COc1cccc(-c2nn(C)c3sc(C(=O)NCCCN(C)Cc4ccccc4)cc23)c1,> 20 µM (inactive)
2,NC(=S)N=Nc1c(O)n(CCCl)c2ccc(Cl)cc12,> 20 µM (inactive)
3,Cc1ccc(C(=O)N[C@@H](C)CN2C3=NC[C@H](Cc4ccccc4)N3C[C@H]2Cc2ccc(O)cc2)cc1Br,> 20 µM (inactive)
4,O=C(COC(=O)CCCCCNC1=NS(=O)(=O)c2ccccc21)Nc1ccc(Cl)c(Cl)c1,> 20 µM (inactive)
5,CN(C)S(=O)(=O)c1cccc(COc2ncnc3c(Cl)cc(Cl)cc23)c1,> 20 µM (inactive)
6,COc1ccccc1NC(=O)CSc1nc2ccccc2n1C(C)=O,> 20 µM (inactive)
7,CCOC(=O)C(=NC1CCS(=O)(=O)C1)NNc1cc(Cl)ccc1Cl (stereo unspecified),> 20 µM (inactive)
8,COc1ccccc1NS(=O)(=O)c1cccc(C(=O)NNC(=O)c2ccc(Cl)nc2)c1,> 20 µM (inactive)
9,CCOc1ccccc1NC(=O)COc1cccnc1[N+](=O)[O-],> 20 µM (inactive)

# System: not listed separately
# Assay: Shn3 3'UTR reporter inhibitors, dose response, cell-based, Clone20 osteoblasts, firefly luciferase, cherry-picked (AID 624132);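 further: firefly luciferase luminescence from reporter carrying the Shn3 3'UTR in osteoblasts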
# Type: functional
row,Structure (SMILES),AC50
1,CCCCNc1cccc2c1S(=O)(=O)N(CCCC)CC(COCc1ccccc1)O2 (stereo unspecified),8.93 µM (active)
